In US9040501B2, “Compositions and methods for treating cancer” (Eisai Inc., priority 2009, dated 2015):
Like-named read-outs stand apart in the source and are kept apart here.

Experiments:
cytidine deaminase (CDA) [1] = target: T1, cytidine deaminase (CDA) (Homo sapiens (Human), UniProt P32320); experiment: Effect of ER-876437 on the half-life of cytarabine in the presence of CDA in Tris-HCl buffer at 37° C.
cytidine deaminase (CDA) [2] = target: T1, cytidine deaminase (CDA); experiment: Effect of ER-876437 on the half-life of decitabine in the presence of CDA in Tris-HCl buffer at 37° C.; format: biochemical
Experimental: The solvent delivery system employed an HPLC quaternary pump, low pressure mixing. An autosampler having a variable loop, 0.1 to 100 μL range and temperature controlled thermostat was used. […] Degassed HPLC grade water and degassed HPLC grade acetonitrile were used as solvents for the mobile phases. […] [table]

[3] = Pharmacokinetics in mice after IV and PO administrations; format: in vivo, male BALB-c mice; details: for concentration at 0.167 hr / concentration at 0.5 hr / concentration at 1 hr / concentration at 2 hr / concentration at 4 hr / concentration at 6 hr / concentration at 8 hr / concentration at 24 hr: read-out: Plasma concentrations
Experimental: […]. All doses were prepared in phosphate buffered saline (PBS) and were administered at a volume of 5 mL/kg. Five mice per group were used in these studies. Blood samples were taken serially from the tail vein of each mouse at predetermined timepoints. Blood samples from all mice in each group were pooled together prior to processing for plasma. The pooled blood samples were spun down within 30-60 minutes after withdrawal and the plasma was harvested and frozen for assay. After preparation and extraction the samples were assayed by LC/MS/MS.

[4] = Stability in simulated gastric fluid at 37° C. (HPLC); format: physicochemical; details: SGF at 37° C.
Excerpt: […]. See Kararli, T. T. Comparison of the GI anatomy, physiology, and biochemistry of humans and commonly used laboratory animals. BioPharm & DrugDispos. 16:351-380, 1995, which is hereby wholly incorporated by reference. The gastric pH in fasted monkeys has been reported to have a similar range of 1-3. See Kondo, H. et al. Characteristics of the gastric pH profiles of unfed and fed cynomolgus monkeys as pharmaceutical product development subjects. BioPharm & DrugDispos. 24:45-51, 2003, which is hereby wholly incorporated by reference.
Materials: Simulated gastric fluid (SGF) was prepared by mixing the following into 100 mL of HPLC grade (or purified) water: 200 mg of sodium chloride and 1.87 mL of a 37.52% HCl stock solution.
The HPLC analyses were conducted using a Waters UPLC solvent delivery system with Corona CAD detection. The HPLC Column (Waters Atlantis HHS T3 2.1×100 mm, 1.8 um) was maintained at 40° C. and preequilibrated with a solution containing 98% water and 2% acetonitrile. The temperature controlled auto-sampler was maintained at 37° C. The flow rate for the Water/MeCN mobile phase was 0.65 mL/min, with a gradient following sample injection (5 μL) as follows: […]
The Water/MeCN mobile phase was applied to the column with the above described flow rate and gradient and the HPLC chromatograms were collected. After 3.5 minutes, the column was reequilibrated with 98% water/2% MeCN for 1.5 minutes.

[5] = male, BALB-c, mouse, plasma, 10 mg/kg IV
[6] = male, BALB-c, mouse, plasma, 10 mg/kg PO

T1 sequence (P32320 whole entry): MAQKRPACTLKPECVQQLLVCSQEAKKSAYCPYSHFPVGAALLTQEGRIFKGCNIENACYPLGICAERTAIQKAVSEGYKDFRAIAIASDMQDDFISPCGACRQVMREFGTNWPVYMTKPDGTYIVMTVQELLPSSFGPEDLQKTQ

For `O=C1NCC=CCN1[C@@H]1O[C@H](CO)[C@@H](O)C1(F)F` [ER-876437, 1-((2R,4R,5R)-3,3-difluoro-4-hydroxy-5-(hydroxymethyl)tetrahydrofuran-2-yl)-3,4-dihydro-1H-1,3-diazepin-2(7H)-one], the cytarabine remaining (cytidine deaminase (CDA) [1]; CDA plus ER-876437 in the incubation mixture, after 52 h) was “greater than 95%”, the “inhibition of the effect of CDA on T1/2 of cytarabine” value (cytidine deaminase (CDA) [1]; Tris-HCl buffer at 37° C.) was “nearly completely inhibited” and the “levels of ER-876437” value (cytidine deaminase (CDA) [1]; after 52 hours of exposure to CDA with cytarabine) was “not affected”. The “inhibition of the effect of CDA on T1/2 of decitabine” value (cytidine deaminase (CDA) [2]; Tris-HCl buffer at 37° C.) was “nearly completely inhibited”, the “levels of ER-876437” value (cytidine deaminase (CDA) [2]; after 12 hours exposure to CDA with decitabine) was “not affected” and the “t1/2 after PO administration relative to IV administration” value ([3]; 10 mg/kg) was “roughly 2.5 fold”. The “AUC0-∞” value ([3]; 10 mg/kg IV) was 13.071 µg·h/mL, the “AUC0-∞/D” value ([3]; 10 mg/kg IV) was 1307 ng · hr/mL/D and the AUCExtrap ([3]; 10 mg/kg IV) was 1.4%. It also gave a CL ([3]; 10 mg/kg IV) of 0.77 L/h/kg, a dose-normalized exposures (AUC0-∞) ([3]; 10 mg/kg IV) of 1310 ng·h/mL per mg/kg and a t1/2 ([3]; 10 mg/kg IV) of 6.1 h. The “AUC0-∞” value ([3]; 10 mg/kg PO) was 9.499 µg·h/mL, the “AUC0-∞/D” value ([3]; 10 mg/kg PO) was 950 ng · hr/mL/D and the AUC(0-t) ([3]; 10 mg/kg PO) was 8.579 µg·h/mL. For the same molecule, the AUCExtrap ([3]; 10 mg/kg PO) was 9.7%, the t1/2 ([3]; 10 mg/kg PO) was 16.3 h and the AUC(0-inf) [3, 5] was 13.1 µg·h/mL. It also gave a clearance [3, 5] of 0.77 L/h/kg, a half-life [3, 5] of 6.1 h and a concentration at 0.167 hr [3, 5] of 11.8 µg/mL. It also gave a concentration at 0.5 hr [3, 5] of 7.69 µg/mL, a concentration at 1 hr [3, 5] of 3.47 µg/mL and a concentration at 2 hr [3, 5] of 1.45 µg/mL. The concentration at 4 hr [3, 5] was 0.214 µg/mL, the concentration at 6 hr [3, 5] was 0.184 µg/mL and the concentration at 8 hr [3, 5] was 0.064 µg/mL. It also gave a concentration at 24 hr [3, 5] of 0.02 µg/mL, an AUC(0-t) ([3]; male, BALB-c, mouse, plasma, 10 mg/kg IV, read-out: AUC0-t) of 12.9 µg·h/mL and a Vd ([3]; male, BALB-c, mouse, plasma, 10 mg/kg IV, read-out: Vss) of 1.64 L/kg. It also gave an AUC(0-inf) [3, 6] of 9.5 µg·h/mL, a Cmax [3, 6] of 8.6 µg/mL and a half-life [3, 6] of 16.3 h. The bioavailability ([3]; male, BALB-c, mouse, plasma, 10 mg/kg PO vs IV, calculated based on AUC0-t, read-out: F (bioavailability)) was 66.5%, the concentration at 0.167 hr [3, 6] was 8.6 µg/mL and the concentration at 0.5 hr [3, 6] was 3.72 µg/mL. The concentration at 1 hr [3, 6] was 4.18 µg/mL, the concentration at 2 hr [3, 6] was 1.15 µg/mL and the concentration at 4 hr [3, 6] was 0.146 µg/mL. For the same molecule, the concentration at 6 hr [3, 6] was 0.036 µg/mL, the concentration at 8 hr [3, 6] was 0.103 µg/mL and the concentration at 24 hr [3, 6] was 0.039 µg/mL. The AUC(0-t) ([3]; male, BALB-c, mouse, plasma, 10 mg/kg PO, read-out: AUC0-t) was 8.58 µg·h/mL, the “% ER-876437 (peak retention time: 2.90 min)” value ([4]; analysis time 0:00:30) was 85.88% and the “% ER-876437 (peak retention time: 2.90 min)” value ([4]; analysis time 0:06:08) was 85.72%. The “% ER-876437 (peak retention time: 2.90 min)” value ([4]; analysis time 0:11:45) was 86.46%.
